Experimental data as given in patent publication US11040035B2, “3-oxo-2,6-diphenyl-2,3-dihydropyridazine-4-carboxamides” (BAYER PHARMA AKTIENGESELLSCHAFT, priority 2016, dated 2021).

Legend:
AHR [1] = target: T1, AHR (Homo sapiens, UniProt P35869); experiment: In vitro assay 2: agonism in human cell line (transactivation assay)
T1 sequence (P35869 11-848): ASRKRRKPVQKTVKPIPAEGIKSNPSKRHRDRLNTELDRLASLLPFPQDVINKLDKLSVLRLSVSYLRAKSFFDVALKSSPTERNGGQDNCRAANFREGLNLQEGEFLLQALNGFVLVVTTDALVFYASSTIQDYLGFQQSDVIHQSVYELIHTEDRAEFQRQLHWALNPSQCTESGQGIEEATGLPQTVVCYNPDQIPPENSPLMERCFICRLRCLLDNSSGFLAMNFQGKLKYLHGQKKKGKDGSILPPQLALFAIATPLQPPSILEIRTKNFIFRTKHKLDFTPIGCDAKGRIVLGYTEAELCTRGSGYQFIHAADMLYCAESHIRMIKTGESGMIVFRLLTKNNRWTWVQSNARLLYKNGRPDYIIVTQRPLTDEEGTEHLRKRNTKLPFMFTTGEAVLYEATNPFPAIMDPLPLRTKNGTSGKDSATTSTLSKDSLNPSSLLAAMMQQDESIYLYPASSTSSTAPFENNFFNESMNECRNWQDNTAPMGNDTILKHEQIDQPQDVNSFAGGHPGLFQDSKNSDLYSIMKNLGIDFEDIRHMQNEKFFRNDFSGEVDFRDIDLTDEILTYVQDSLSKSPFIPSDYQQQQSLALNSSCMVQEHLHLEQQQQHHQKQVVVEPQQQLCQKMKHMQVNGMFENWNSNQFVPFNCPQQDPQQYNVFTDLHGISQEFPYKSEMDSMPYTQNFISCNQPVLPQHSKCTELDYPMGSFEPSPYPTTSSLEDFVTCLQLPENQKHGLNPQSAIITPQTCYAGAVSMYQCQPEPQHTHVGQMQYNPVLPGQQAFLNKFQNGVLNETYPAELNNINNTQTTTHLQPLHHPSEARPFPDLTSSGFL
Method: Transactivation Assay in Human Cell Line (In Vitro Assays 1 and 2)
Transactivation assays were carried out in U87 glioblastoma cells (ATCC) endogenously expressing AHR. In addition the cells were stably transfected with an AHR inducible firefly luciferase reporter gene construct that carried AHR-binding sites (DRE) in its promoter and a renilla reporter gene construct with constitutively active promoter.
In Vitro Assay 2: Agonism in Human Cell Line
Cells in medium (tryptophan free RPMI, 1% FCS, 2 mM Glutamine) were grown for 20 hours in absence (negative control) or presence of increasing concentrations of test compounds (typical dilutions: 72 pmol/L, 0.25 nmol/L, 0.89 nmol/L; 3.1 nmol/L, 11 nmol/L, 38 nmol/L, 130 nmol/L, 470 nmol/L, 1.6 μmol/L, 5.7 μmol/L and 20 μmol/L in duplicates). As positive activation control cells were incubated with 300 μM kynurenic acid. Normalization was done by positive and negative controls.
Firefly luciferase activity was determined by the SteadyGlo Luciferase Assay System (Promega, #2520).

AHR [2] = target: T1, AHR; experiment: In vitro assay 1: antagonism in human cell line (transactivation assay, kynurenic acid prestimulated); details: Assay 1: AHR-luc Hum Antagonism IC50 [M], 150 μM kynurenic acid, 20 hours, firefly luciferase
[3] = Assay 2: AHR-luc Hum Agonism IC50 [M], no kynurenic acid, 20 hours, firefly luciferase
[4] = read-out: Assay 2: AHR-luc Hum Agonism IC50, no kynurenic acid, 20 hours, firefly luciferase

| IC50 (AHR [1]; [3]) [M] | IC50 (AHR [2]) [M] | IC50 (AHR [1]; [4]) [M] | SMILES |
| --- | --- | --- | --- |
| > 2e-05 | 2.41e-07 |  | O=C(NC(CO)CCO)c1cc(-c2ccc(Cl)cc2)nn(-c2cccc(F)c2)c1=O (single isomer, unassigned; (+)) [Example 225, (+)-6-(4-Chlorophenyl)-N-(1,4-dihydroxybutan-2-yl)-2-(3-fluorophenyl)-3-oxo-2,3-dihydropyridazine-4-carboxamide] |
|  | 5.84e-07 | > 2e-05 | CC(O)C(NC(=O)c1cc(-c2ccc(Cl)cc2)nn(-c2cccc(F)c2)c1=O)C(F)(F)F (single isomer, unassigned) [Example 199, Isomer no. 2 of 6-(4-chlorophenyl)-2-(3-fluorophenyl)-3-oxo-N-(1,1,1-trifluoro-3-hydroxybutan-2-yl)-2,3-dihydropyridazine-4-carboxamide] |
|  | 2.11e-07 | > 2e-05 | COCC(O)CNC(=O)c1cc(-c2ccc(Cl)cc2)nn(-c2cccc(F)c2)c1=O (single isomer, unassigned) [Example 33, 6-(4-Chlorophenyl)-2-(3-fluorophenyl)-N-(2-hydroxy-3-methoxypropyl)-3-oxo-2,3-dihydropyridazine-4-carboxamide] |
| > 2e-05 | 7.5e-08 |  | CC(CO)CNC(=O)c1cc(-c2ccc(Cl)cc2)nn(-c2cccc(F)c2)c1=O (racemic) [Example 200, 6-(4-Chlorophenyl)-2-(3-fluorophenyl)-N-[(2RS)-3-hydroxy-2-methylpropyl]-3-oxo-2,3-dihydropyridazine-4-carboxamide] |
| > 2e-05 | 2.84e-07 |  | O=C(NC[C@@H](O)CO)c1cc(-c2ccc(Cl)cc2)nn(-c2cccc(F)c2)c1=O [Example 159, 6-(4-Chlorophenyl)-N-[(2R)-2,3-dihydroxypropyl]-2-(3-fluorophenyl)-3-oxo-2,3-dihydropyridazine-4-carboxamide] |
| > 2e-05 | 2.31e-07 |  | N#Cc1cccc(-n2nc(-c3ccc(Cl)cc3)cc(C(=O)NCC(O)C(F)(F)F)c2=O)c1 (stereo not drawn) [Example 362, 6-(4-chlorophenyl)-2-(3-cyanophenyl)-3-oxo-N-(3,3,3-trifluoro-2-hydroxypropyl)-2,3-dihydropyridazine-4-carboxamide] |
| > 2e-05 | 1.3e-07 |  | O=C(N[C@H]1C[C@H](CO)C1)c1cc(-c2ccc(Cl)cc2)nn(-c2cccc(F)c2)c1=O [Example 396, 6-(4-chlorophenyl)-2-(3-fluorophenyl)-N-[trans-3-(hydroxymethyl)cyclobutyl]-3-oxo-2,3-dihydropyridazine-4-carboxamide] |
| > 2e-05 | 2.79e-07 |  | O=C(NC(CO)CCO)c1cc(-c2ccc(Cl)cc2)nn(-c2cccc(F)c2)c1=O (racemic) [Example 224, 6-(4-Chlorophenyl)-N-[(2RS)-1,4-dihydroxybutan-2-yl]-2-(3-fluorophenyl)-3-oxo-2,3-dihydropyridazine-4-carboxamide] |
| > 2e-05 | 4.83e-07 |  | NC(=O)[C@H](CO)NC(=O)c1cc(-c2ccc(Cl)cc2)nn(-c2cccc(F)c2)c1=O [Example 162, N-[(2S)-1-Amino-3-hydroxy-1-oxopropan-2-yl]-6-(4-chlorophenyl)-2-(3-fluorophenyl)-3-oxo-2,3-dihydropyridazine-4-carboxamide] |
| > 2e-05 | 2.21e-07 |  | O=C(NC[C@H]1C[C@H](O)C1)c1cc(-c2ccc(Cl)cc2)nn(-c2cccc(F)c2)c1=O [Example 372, 6-(4-chlorophenyl)-2-(3-fluorophenyl)-N-[(trans-3-hydroxycyclobutyl)-methyl]-3-oxo-2,3-dihydropyridazine-4-carboxamide] |
| > 2e-05 | 7.2e-07 |  | CC(C)(CNC(=O)c1cc(-c2ccc(Cl)cc2)nn(-c2cccc(F)c2)c1=O)C(=O)O [Example 399, 3-({[6-(4-Chlorophenyl)-2-(3-fluorophenyl)-3-oxo-2,3-dihydropyridazin-4-yl]carbonyl}amino)-2,2-dimethylpropanoic acid] |
| > 2e-05 | 3.02e-08 |  | C[C@@H](CO)NC(=O)c1cc(-c2ccc(C(F)F)cc2)nn(-c2cccc(F)c2)c1=O [Example 93, 6-[4-(Difluoromethyl)phenyl]-2-(3-fluorophenyl)-N-[(2S)-1-hydroxypropan-2-yl]-3-oxo-2,3-dihydropyridazine-4-carboxamide] |
| > 2e-05 | 3.11e-07 |  | COCC(O)CNC(=O)c1cc(-c2ccc(OC(F)F)cc2)nn(-c2cccc(F)c2)c1=O (stereo not drawn) [Example 160, 6-[4-(Difluoromethoxy)phenyl]-2-(3-fluorophenyl)-N-(2-hydroxy-3-methoxypropyl)-3-oxo-2,3-dihydropyridazine-4-carboxamide] |
| > 2e-05 | 3.7e-07 |  | CC(C)C(O)CNC(=O)c1cc(-c2ccc(Cl)cc2)nn(-c2cccc(Cl)c2)c1=O (single isomer, unassigned) [Example 68, 2-(3-Chlorophenyl)-6-(4-chlorophenyl)-N-(2-hydroxy-3-methylbutyl)-3-oxo-2,3-dihydropyridazine-4-carboxamide] |

More lines, now with the values behind:

| SMILES | IC50 (AHR [1]; [3]) [M] | IC50 (AHR [2]) [M] | IC50 (AHR [1]; [4]) [M] |
| --- | --- | --- | --- |
| CC(NC(=O)c1cc(-c2ccc(C(F)(F)F)cc2)nn(-c2cccc(F)c2)c1=O)C(O)C(F)(F)F (single isomer, unassigned) [Example 269, Isomer no. 2 of 2-(3-fluorophenyl)-3-oxo-N-(4,4,4-trifluoro-3-hydroxybutan-2-yl)-6-[4-(trifluoromethyl)phenyl]-2,3-dihydropyridazine-4-carboxamide] | 3.85e-09 | > 2e-05 |  |
| O=C(NC(CO)(CO)C(F)(F)F)c1cc(-c2ccc(Cl)cc2)nn(-c2cccc(F)c2)c1=O [Example 280, 6-(4-Chlorophenyl)-2-(3-fluorophenyl)-3-oxo-N-[1,1,1-trifluoro-3-hydroxy-2-(hydroxymethyl)propan-2-yl]-2,3-dihydropyridazine-4-carboxamide] | > 2e-05 | 1.92e-08 |  |
| O=C(NC(CO)C1CCOCC1)c1cc(-c2ccc(Cl)cc2)nn(-c2cccc(F)c2)c1=O (stereo not drawn) [Example 149] | > 2e-05 | 1.87e-07 |  |
| O=C(NC(CO)C1CCOCC1)c1cc(-c2ccc(Cl)cc2)nn(-c2cccc(F)c2)c1=O (single isomer, unassigned) [Example 151, 6-(4-Chlorophenyl)-2-(3-fluorophenyl)-N-[2-hydroxy-1-(tetrahydro-2H-pyran-4-yl)ethyl]-3-oxo-2,3-dihydropyridazine-4-carboxamide] |  | 1.24e-07 | > 2e-05 |
| O=C(NCC(O)C(F)(F)F)c1cc(-c2ccc(OC(F)F)cc2)nn(-c2cccc(F)c2)c1=O (single isomer, unassigned) [Example 121, 6-[4-(Difluoromethoxy)phenyl]-2-(3-fluorophenyl)-3-oxo-N-(3,3,3-trifluoro-2-hydroxypropyl)-2,3-dihydropyridazine-4-carboxamide] | > 2e-05 | 3.42e-08 |  |
| CC[C@@H](CO)NC(=O)c1cc(-c2ccc(OC(F)F)cc2)nn(-c2cccc(F)c2)c1=O [Example 137, 6-[4-(Difluoromethoxy)phenyl]-2-(3-fluorophenyl)-N-[(2S)-1-hydroxybutan-2-yl]-3-oxo-2,3-dihydropyridazine-4-carboxamide] | > 2e-05 | 4.99e-08 |  |
| O=C(NCC(O)C(F)(F)F)c1cc(-c2ccc(Cl)c(F)c2)nn(-c2cccc(F)c2)c1=O (stereo not drawn) [Example 282, 6-(4-chloro-3-fluorophenyl)-2-(3-fluorophenyl)-3-oxo-N-(3,3,3-trifluoro-2-hydroxypropyl)-2,3-dihydropyridazine-4-carboxamide] | > 2e-05 | 1.81e-07 |  |
| O=C(N[C@H]1CCCC[C@@H]1O)c1cc(-c2ccc(Cl)cc2)nn(-c2cccc(F)c2)c1=O (single isomer, unassigned) [Example 119, 6-(4-Chlorophenyl)-2-(3-fluorophenyl)-N-(trans-2-hydroxycyclohexyl)-3-oxo-2,3-dihydropyridazine-4-carboxamide] |  | 4.51e-07 | > 2e-05 |
| O=C(NC(CO)C1CCOC1)c1cc(-c2ccc(Cl)cc2)nn(-c2cccc(F)c2)c1=O (single isomer, unassigned) [Example 40, 6-(4-Chlorophenyl)-2-(3-fluorophenyl)-N-[2-hydroxy-1-(tetrahydrofuran-3-yl)ethyl]-3-oxo-2,3-dihydropyridazine-4-carboxamide] |  | 1.17e-07 | > 2e-05 |
| Cc1ccc(-c2cc(C(=O)NCC(O)C(F)(F)F)c(=O)n(-c3cc(F)cc(F)c3)n2)cc1 (stereo not drawn) [Example 52, 2-(3,5-Difluorophenyl)-6-(4-methylphenyl)-3-oxo-N-(3,3,3-trifluoro-2-hydroxypropyl)-2,3-dihydropyridazine-4-carboxamide] | > 2e-05 | 1.17e-08 |  |
